Test results as given in ChEMBL document CHEMBL1141254, “Daphnimacropodines A-D, alkaloids from Daphniphyllum macropodum” (J Nat Prod, 2007).
Activity calls are given as the source filed them.

Key:
Assay type in all cases: functional, cell-based
[1] = tested on: Platelet; test: Inhibition of PAF-induced platelet aggregation
[2] = tested on: Platelet; test: Inhibition of ADP-induced platelet aggregation
[3] = tested on: Platelet; test: Inhibition of AA-induced platelet aggregation

Measured: Activity

COC(=O)CC[C@@]12C3=CCC[C@@H]3CC[C@@H]3CN4C[C@@H](C)C(CC[C@@]31CO)C42 (some centres not stated)
inactive: all assays above

C[C@@H]1CN(C=O)[C@H]2[C@@H]1CC[C@@]1(CO)C(=O)CC[C@H]3CCC=C3[C@@]21CCC(=O)O
inactive: all assays above

C[C@@H]1CN2C(=O)CC[C@@]34C5=CCC[C@@H]5CCC5[C@H](O)OC[C@]53CC[C@H]1[C@H]24 (some centres not stated)
inactive: all assays above

C[C@@H]1CN(C=O)[C@H]2[C@@H]1CC[C@]13COC(=O)CC[C@]21C1=CCC[C@@H]1CCC3=O
inactive: all assays above
